Results as given in patent US4379784A, “Pyrimidinyl ureido penicillins” (Dr. Karl Thomae Gesellschaft mit beschrankter Haftung, priority 1980, dated 1983).
≈ marks a conversion by molar mass, not a printed value.

Experiments:
[1] = test system: Pseudomonas aeruginosa Hamburgensis; assay: series dilution test in the microtiter system (MIC), Ps. aeruginosa Hamburgensis; format: cell-based; conditions: 18 to 20 hours at 37° C., liquid medium, read-out: minimum inhibitory concentrations (MIC), Pseud. aerug. Hbg.
Description: (§1) The method of the series dilution test in the microtiter system was used. The substances were tested for bacteriostasis in a liquid medium. The bacteriostatic activity was tested at the following concentrations:
(§2) A nutrient medium having the following composition was used: 10 gm of peptone, 8 gm of meat extract oxoid, 3 gm of sodium chloride, and 2 gm of sec. sodium phosphate were made up to […] with distilled water (pH 7.2 to 7.4). The age of the primary cultures was about 20 hours.
(§3) The bacterial suspension was adjusted using the photometer (according to "Eppendorf", test tube diameter 14 mm, filter 546 nm) by reference to the turbidity of a barium sulfate comparison suspension which was produced by a barium sulfate suspension formed by the addition of 3.0 ml of 1% barium chloride solution to 97 ml of 1% sulfuric acid. After adjustment, Streptococcus aronson was diluted in the ratio 1:15 and the other test pathogens were diluted in the ratio 1:1500 with a common salt solution.
(§4) 16 mg of the test substance were weighed in 10 ml measuring flasks and solvent was added up to the mark. Further dilutions in the series were made with distilled water or the solvent in question.
(§5) The depressions in the microtiter plates were filled with 0.2 ml of nutrient medium, 0.01 ml of the corresponding diluted substance and a drop of bacterial suspension (0.01 ml) and incubated for 18 to 20 hours at 37° C. A solvent check was carried out continuously at the same time.
(§6) The reading was taken macroscopically, and the respective limiting concentration (=the lowest concentration still having bacteriostatic activity) was determined.
(§7) The following were used as test organisms:
(§8) Staphylococcus aureus SG 511, Escherichia coli ATCC 11 775, Pseudomonas aeruginosa Hamburgensis and Pseudomonas aeruginosa BC 19, Serratia Marcescens ATCC 13 880, Klebsiella pneumoniae ATCC 10 031 and BC 6, Proteus mirabilis Hamburgensis, Proteus rettgeri BC 7, Enterobacter cloacae ATCC 13 047.
(§9) Table 1 below lists the minimum inhibitory concentrations (MIC) in μgm/ml determined for typical representatives of the compounds of the present invention. These are the sodium salts of compounds of the formula I where A=p-hydroxyphenyl and R has the indicated meanings.

[2] = test system: Enterobacter cloacae ATCC 13 047; assay: series dilution test in the microtiter system (MIC), Enterobacter cloacae ATCC 13047; format: cell-based; conditions: 18 to 20 hours at 37° C., liquid medium, read-out: minimum inhibitory concentrations (MIC), Eb.cloacae ATCC 13047
Description: as §1, §2, §3, §4, §5, §6, §7, §8, §9

[3] = test system: Pseudomonas aeruginosa BC 19; assay: series dilution test in the microtiter system (MIC), Ps. aeruginosa BC 19; format: cell-based; conditions: BC19, 18 to 20 hours at 37° C., liquid medium, read-out: minimum inhibitory concentrations (MIC), Pseud. aerug. BC 19
Description: as §1, §2, §3, §4, §5, §6, §7, §8, §9

[4] = test system: Escherichia coli ATCC 11 775; assay: series dilution test in the microtiter system (MIC), E. coli ATCC 11775; format: cell-based; conditions: 18 to 20 hours at 37° C., liquid medium, read-out: minimum inhibitory concentrations (MIC), E.Coli ATCC 11775
Description: as §1, §2, §3, §4, §5, §6, §7, §8, §9

[5] = test system: Serratia Marcescens ATCC 13 880; assay: series dilution test in the microtiter system (MIC), Serratia marcescens ATCC 13880; format: cell-based; conditions: 18 to 20 hours at 37° C., liquid medium, read-out: minimum inhibitory concentrations (MIC), Serrat. marcesc. ATCC 13880
Description: as §1, §2, §3, §4, §5, §6, §7, §8, §9

E. coli ATCC 11775 = assay: in vivo experimental E. coli infection in mice; parameters: species or system mice (female, NMRI strain); conditions: Escherichia coli, ATCC11775, sc, 168 h; subcutaneous, one treatment 1 hour post infectionem; 50% survival, 7 days observation
Description: (§10) A number of the compounds of the present invention were tested in vivo against experimental infections in mice. E. coli ATCC 11775 and Pseudomonas aeruginosa BC 19 were used as the pathogenic bacteria. An intraperitoneal infection was produced with 0.2 ml of a 5% mucin suspension of the bacteria. This corresponds to about 1.4×10^6 E. coli bacteria and 1.3×10^6 Pseudomonas bacteria per mouse. Female mice of the NMRI strain were divided into groups of 10 animals; two groups were untreated, the other groups were treated subcutaneously with various doses of the penicillins of the present invention, to determine the ED50 (dose at which 50% of the animals survived). For the E. coli infection, one treatment was given*. For the Pseudomonas infection, three treatments were given (1, 3 and 5 hours post-infectionem). *1 hour post infectionem In both cases, the observation period was 7 days.

[6] = test system: Klebsiella pneumoniae BC 6; assay: series dilution test in the microtiter system (MIC), Klebsiella pneumoniae BC 6; format: cell-based; conditions: BC6, 18 to 20 hours at 37° C., liquid medium, read-out: minimum inhibitory concentrations (MIC), Klebs. pneum. BC 6
Description: as §1, §2, §3, §4, §5, §6, §7, §8, §9

[7] = test system: Proteus mirabilis Hamburgensis; assay: series dilution test in the microtiter system (MIC), Proteus mirabilis Hamburgensis; format: cell-based; conditions: 18 to 20 hours at 37° C., liquid medium, read-out: minimum inhibitory concentrations (MIC), Prot. mirabilis Hbg
Description: as §1, §2, §3, §4, §5, §6, §7, §8, §9

[8] = test system: Pseudomonas aeruginosa BC 19; assay: in vivo experimental Pseudomonas infection in mice; parameters: species or system mice (female, NMRI strain); conditions: BC19, sc, 168 h, subcutaneous, three treatments 1, 3 and 5 hours post-infectionem, 50% survival, 7 days observation, read-out: ED50, Pseud. Infection
Description: as §10, with “post-infectionem).” for “post-infectionem). *1 hour post infectionem”

Proteus rettgeri BC 7 = assay: series dilution test in the microtiter system (MIC), Proteus rettgeri BC 7; format: cell-based; conditions: Providencia rettgeri, BC7; 18 to 20 hours at 37° C., liquid medium; read-out: minimum inhibitory concentrations (MIC), Prot. geri BC
Description: as §1, §2, §3, §4, §5, §6, §7, §8, §9

[9] = test system: Staphylococcus aureus SG 511; assay: series dilution test in the microtiter system (MIC), S. aureus SG 511; format: cell-based; conditions: SG511, 18 to 20 hours at 37° C., liquid medium, read-out: minimum inhibitory concentrations (MIC), S.aureus SG 511
Description: as §1, §2, §3, §4, §5, §6, §7, §8, §9

[10] = test system: Klebsiella pneumoniae ATCC 10 031; assay: series dilution test in the microtiter system (MIC), Klebsiella pneumoniae ATCC 10031; format: cell-based; conditions: 18 to 20 hours at 37° C., liquid medium, read-out: minimum inhibitory concentrations (MIC), Klebs.pneum. ATCC 10031
Description: as §1, §2, §3, §4, §5, §6, §7, §8, §9

Row | SMILES | MIC [1] [µg/mL] | MIC [2] [µg/mL] | MIC [3] [µg/mL] | MIC [4] [µg/mL] | MIC [5] [µg/mL] | ED50 (E. coli ATCC 11775) [mg/kg] | MIC [6] [µg/mL] | MIC [7] [µg/mL] | ED50 [8] [mg/kg] | MIC (Proteus rettgeri BC 7) [µg/mL] | MIC [9] [µg/mL] | MIC [10] [µg/mL]
1 | CC1(C)S[C@@H]2[C@H](NC(=O)C(NC(=O)Nc3cnc(Nc4ccc(S(=O)(=O)NC5=NCCS5)cc4)nc3O)c3ccc(O)cc3)C(=O)N2[C@H]1C(=O)O (some centres unmarked) [C] | 1 (≈ 1.32 µM) | 0.5 (≈ 0.66 µM) | 2 (≈ 2.64 µM) | 0.12 (≈ 0.158 µM) | 0.25 (≈ 0.33 µM) | ~3 | 1 (≈ 1.32 µM) | 0.06 (≈ 0.0792 µM) | 17 | 0.25 (≈ 0.33 µM) | 0.25 (≈ 0.33 µM) | 1 (≈ 1.32 µM)
2 | CC1(C)S[C@@H]2[C@H](NC(=O)C(NC(=O)Nc3cnc(Nc4ccc(S(=O)(=O)NCCO)cc4)nc3O)c3ccc(O)cc3)C(=O)N2[C@H]1C(=O)O (some centres unmarked) [F] | 2 (≈ 2.79 µM) | 2 (≈ 2.79 µM) | 1 (≈ 1.4 µM) | 0.25 (≈ 0.349 µM) | 0.13 (≈ 0.181 µM) | ~5 | 4 (≈ 5.58 µM) | 0.06 (≈ 0.0837 µM) | 10 to 20 | 0.5 (≈ 0.698 µM) | 0.5 (≈ 0.698 µM) | 2 (≈ 2.79 µM)
3 | CC1(C)S[C@@H]2[C@H](NC(=O)C(NC(=O)Nc3cnc(Nc4ccc(S(=O)(=O)NC5=NCCO5)cc4)nc3O)c3ccc(O)cc3)C(=O)N2[C@H]1C(=O)O (some centres unmarked) [D] | 1 (≈ 1.35 µM) | 1 (≈ 1.35 µM) | 1 (≈ 1.35 µM) | 0.25 (≈ 0.337 µM) | 0.25 (≈ 0.337 µM) | ~2 | 4 (≈ 5.39 µM) | 0.06 (≈ 0.0809 µM) |  | 0.25 (≈ 0.337 µM) | 0.5 (≈ 0.674 µM) | 2 (≈ 2.7 µM)
4 | CC1(C)S[C@@H]2[C@H](NC(=O)C(NC(=O)Nc3cnc(Nc4ccc(S(=O)(=O)N5CCN(C=O)CC5)cc4)nc3O)c3ccc(O)cc3)C(=O)N2[C@H]1C(=O)O (some centres unmarked) [H] | 2 (≈ 2.6 µM) | 1 (≈ 1.3 µM) | 1 (≈ 1.3 µM) | 0.25 (≈ 0.325 µM) | 0.25 (≈ 0.325 µM) |  | 2 (≈ 2.6 µM) | 0.06 (≈ 0.0779 µM) |  | 0.5 (≈ 0.65 µM) | 0.5 (≈ 0.65 µM) | 2 (≈ 2.6 µM)
5 | CC1(C)S[C@@H]2[C@H](NC(=O)C(NC(=O)Nc3cnc(Nc4ccc(S(=O)(=O)NC5=NCCN5)cc4)nc3O)c3ccc(O)cc3)C(=O)N2[C@H]1C(=O)O (some centres unmarked) [B] | 2 (≈ 2.7 µM) | 0.1 (≈ 0.135 µM) | 1 (≈ 1.35 µM) | 0.25 (≈ 0.337 µM) | 0.25 (≈ 0.337 µM) | 0.7 | 4 (≈ 5.4 µM) | 0.06 (≈ 0.081 µM) | 1.9 | 0.5 (≈ 0.675 µM) | 0.5 (≈ 0.675 µM) | 2 (≈ 2.7 µM)
6 | CC1(C)S[C@@H]2[C@H](NC(=O)C(NC(=O)Nc3cnc(Nc4ccc(S(=O)(=O)NCC(N)=O)cc4)nc3O)c3ccc(O)cc3)C(=O)N2[C@H]1C(=O)O (some centres unmarked) [G] | 1 (≈ 1.37 µM) | 1 (≈ 1.37 µM) | 1 (≈ 1.37 µM) | 0.12 (≈ 0.164 µM) | 0.25 (≈ 0.343 µM) | ~5 | 2 (≈ 2.74 µM) | 0.06 (≈ 0.0822 µM) |  | 0.5 (≈ 0.685 µM) | 0.5 (≈ 0.685 µM) | 2 (≈ 2.74 µM)
7 | CC1(C)S[C@@H]2[C@H](NC(=O)C(NC(=O)Nc3cnc(Nc4ccc(S(=O)(=O)NC5=NCCCN5)cc4)nc3O)c3ccc(O)cc3)C(=O)N2[C@H]1C(=O)O (some centres unmarked) [A] | 1 (≈ 1.32 µM) | 0.5 (≈ 0.662 µM) | 1 (≈ 1.32 µM) | 0.25 (≈ 0.331 µM) | 0.5 (≈ 0.662 µM) | 0.6 | 2 (≈ 2.65 µM) | 0.06 (≈ 0.0795 µM) | 2.1 | 0.5 (≈ 0.662 µM) | 0.25 (≈ 0.331 µM) | 2 (≈ 2.65 µM)
8 | CC1(C)S[C@@H]2[C@H](NC(=O)[C@H](NC(=O)N3CCNC3=O)c3ccccc3)C(=O)N2[C@H]1C(=O)O [J, azlocillin, reference compound] | 8 (≈ 17.3 µM) | 32 (≈ 69.3 µM) | 8 (≈ 17.3 µM) | 8 (≈ 17.3 µM) | 4 (≈ 8.67 µM) | > 100 | 32 (≈ 69.3 µM) | 2 (≈ 4.33 µM) | > 100 | 8 (≈ 17.3 µM) | 0.5 (≈ 1.08 µM) | 32 (≈ 69.3 µM)
